Publication PMC10328120 (Nature, 2022)
Where two headings read alike, the source gives them in different places.

Legend:
μOR [1] = target: T1, μOR (Homo sapiens, UniProt P35372); assay: cell-based; assay type: cell-based
μOR [2] = target: T1, μOR; assay: cell-based; assay type: cell-based; settings: for Emax: read-out: β-arr1 Emax % ± SEM
μOR [3] = target: T1, μOR; assay: cell-based; assay type: cell-based; remark: listed apart in the source
C57BL/6J mice [4] = settings: mouse, in vivo
mouse [5] = settings: in vivo
mouse [6] = settings: in vivo; remark: listed apart in the source
mouse [7] = settings: in vivo; remark: listed apart in the source
C57BL/6J mice [8] = settings: mouse, in vivo; remark: listed apart in the source
C57BL/6J mice [9] = settings: mouse, in vivo; remark: listed apart in the source

T1 sequence (P35372 whole entry): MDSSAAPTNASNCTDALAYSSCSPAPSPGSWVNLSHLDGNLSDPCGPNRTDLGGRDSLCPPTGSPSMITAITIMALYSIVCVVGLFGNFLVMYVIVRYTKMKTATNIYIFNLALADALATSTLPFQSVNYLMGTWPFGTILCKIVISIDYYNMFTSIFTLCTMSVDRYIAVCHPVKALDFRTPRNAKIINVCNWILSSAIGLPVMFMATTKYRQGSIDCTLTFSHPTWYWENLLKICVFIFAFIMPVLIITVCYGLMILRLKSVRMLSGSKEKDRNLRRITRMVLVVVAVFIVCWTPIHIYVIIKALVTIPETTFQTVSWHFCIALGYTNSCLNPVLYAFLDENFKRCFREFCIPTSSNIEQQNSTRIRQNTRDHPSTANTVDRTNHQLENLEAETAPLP

SMILES | β-arrestin-2 recruitment, maximum value (μOR [1]) [%] | β-arrestin-2 recruitment, median value (μOR [1]) [%] | β-arrestin-2 recruitment, minimum value (μOR [1]) [%] | β-arrestin-1 recruitment, maximum value (μOR [2]) [%] | β-arrestin-1 recruitment, median value (μOR [2]) [%] | β-arrestin-1 recruitment, minimum value (μOR [2]) [%] | β-arr2 Emax % ± SEM (μOR [1]) [%] | Emax (μOR [3]; read-out: G0a Emax % ± SEM) [%] | Emax (μOR [3]; read-out: G0b Emax % ± SEM) [%] | Emax (μOR [3]; read-out: Gi1 Emax % ± SEM) [%] | Emax (μOR [3]; read-out: Gi2 Emax % ± SEM) [%] | Emax (μOR [3]; read-out: Gi3 Emax % ± SEM) [%] | Emax (μOR [3]; read-out: Gz Emax % ± SEM) [%] | Emax (μOR [2]) [%] | Gz Emax % ± SEM (μOR [3]) | other results
C[C@@H](NC(=O)[C@@H](N)Cc1ccc(O)cc1)C(=O)NCC(=O)N(C)[C@@H](Cc1ccccc1)C(=O)NCCO [DAMGO] | 100 | 100 | 100 | 100 | 100 | 100 |  |  |  |  |  |  |  |  |  | 
COc1ccsc1CNCC[C@@]1(c2ccccn2)CCOC2(CCCC2)C1 [TRV130] |  |  |  |  |  |  | 26 ± 5.9 | 67 ± 5.3 | 76 ± 4.4 | 58 ± 3.8 | 58 ± 4.2 | 45 ± 3.3 | 98 ± 2.2 |  |  | 
CC(C)=CCN1CCC2(C)c3cc(O)ccc3CC1C2C (stereo not drawn) [Pentazocine] |  |  |  |  |  |  |  | 89 ± 4 | 89 ± 3.2 | 75 ± 1.8 | 78 ± 3.8 | 73 ± 2.3 | 103 ± 1.5 | 7 ± 4.51 | full agonist | Emax (μOR [1]; read-out: β-arr2 Emax % ± SEM): 13 ± 4.04%
CC[C@@H]1CN2CC[C@@]3(O)C(=Nc4cccc(OC)c43)[C@@H]2C[C@@H]1/C(=C\OC)C(=O)OC [7-OH, 7-hydroxymitragynine] | 25.2 | −2.4 | −13.1 | 0.3 | −1.4 | −8.0 |  |  |  |  |  |  |  |  | 73 ± 2.8% | Respiratory effect (C57BL/6J mice [4]; sc): respiratory depression similar to that caused by morphine; G0a Emax % ± SEM (μOR [3]): 65 ± 4.9%; G0b Emax % ± SEM (μOR [3]): 56 ± 3.5%; Gi1 Emax % ± SEM (μOR [3]): 31 ± 4.9%; Gi2 Emax % ± SEM (μOR [3]): 53 ± 5.1%
COc1ccc2c3c1O[C@H]1C(=O)CC[C@@]4(O)[C@@H](C2)N(C)CC[C@]314 [Oxycodone] |  |  |  |  |  |  | 80 ± 3.9 | 102 ± 5.2 | 110 ± 3.4 |  | 83 ± 5.7 | 75 ± 3.8 | 102 ± 4.9 | 81 ± 7.9 | full agonist | 
CN1CC[C@]23c4c5ccc(O)c4O[C@H]2[C@@H](O)C=C[C@H]3[C@H]1C5 [Morphine] |  |  |  |  |  |  |  |  |  |  |  |  |  |  |  | Post-conditioning (post-CPP), maximum (mouse [5]): 819 s; Post-conditioning (post-CPP), median (mouse [5]): 154 s; Post-conditioning (post-CPP), minimum (mouse [5]): -299 s; Pre-conditioning (pre-CPP) difference in time on drug-paired side, minimum (mouse [5]): -542 s; Pre-conditioning (pre-CPP), maximum (mouse [5]): 413 s; Pre-conditioning (pre-CPP), median (mouse [5]): -23 s; Antinociception in formalin assay (mouse [6]): significant antinociception compared with vehicle or saline; Formalin assay response, maximum (mouse [6]): 95 s; Formalin assay response, median (mouse [6]): 7 s; Formalin assay response, minimum (mouse [6]): 1 s; Breath rates (C57BL/6J mice [4]): decrease; Antinociception in writhing assay (mouse [7]): significant antinociception compared with vehicle or saline; Number of writhes over 15 min, maximum (mouse [7]): 32; Number of writhes over 15 min, median (mouse [7]): 0; Number of writhes over 15 min, minimum (mouse [7]): 0; Ambulations (locomotor effect) (C57BL/6J mice [8]): hyperlocomotion; ED50 95% confidence interval (C57BL/6J mice [9]): 4.4 to 8.43 nmol; Median antinociceptive dose (ED50) (C57BL/6J mice [9]): 6.6 nmol
